Experimental data as given in US20060234909A1, “Compositions and methods for increasing drug efficiency” (priority 2003, published 2006).
Primed or numbered codes have the meaning given here. * marks the point of attachment. 10Ca = carbamate linkage conjugating the peptide-PEG to paclitaxel at C10; 10Ca‑PXL = paclitaxel conjugated at C10 via a carbamate; 3Am‑VBL = vinblastine (VBL) conjugate; 3′Alk‑MAL(9) = not defined here; ALK(6) = not defined here; MAL(9) = not defined here; 3′Alk = not defined here; PEG(11) = PEG(11) linker; PEG(29) = PEG(29) linker; 10Es = not defined here; 3Am = not defined here; Cbz = O=C(OCc1ccccc1)*; PEG(13) = PEG13 linker; Boc = CC(C)(C)OC(=O)*; Piv = CC(C)(C)C(=O)*; OBn = c1ccc(CO*)cc1; DOX = doxorubicin; VBL = vinblastine; PXL = paclitaxel

How the values were obtained:
Human Src = biological target: T1, Human Src (Homo sapiens, UniProt P12931); assay: Src kinase assay (PKLight ATP utilization, substrate phosphorylation as % of parent peptide); assay type: biochemical; details: for Src (Qual. Act.): DOX-Src kinase substrate conjugates
T1 construct: purchased Upstate (Charlottesville, Va.) 14-326
Method: Another test may involve monitoring the consumption of ATP. For example, ATP concentrations at time 0 or after 4 hour incubation may be monitored by luciferase reaction (PKLight kit obtained from Cambrex Corporation, One Meadowlands Plaza, East Rutherford, N.J. 07073), which generate a luminescence readout in the presence of ATP. Assays are initiated by mixing a kinase and a peptide in the presence of 40 μM ATP. After 4 hour of incubation at 30° C., PKLight reagent is added and mixed well, and luminescence readout measured. The rate of peptide phosphorylation is then directly related to the rate of decrease in the observed luminescence. Based on the first test, linkers of appropriate lengths and peptides with an effective amount of kinase activity which may be expected to be retained in the drug conjugate may be found.
Human Src (#14-326) and Akt (#14-276) kinases were purchased from Upstate (Charlottesville, Va.). Kinase reactions were carried out in 50 μl kinase reaction cocktail (25 mM Tris-HCl, pH 7.5, 5 μM β-glycerophosphate, 2 mM DTT, 0.1 mM Na3VO4, 10 mM MgCl2, 1 mg/ml BSA, […], 0.5 to 1.0 units enzyme). Substrates (peptide or drug-peptide conjugate in […]) were added (25, 50 and 100 μM) and the reaction was incubated for 2-5 hours at 30° C. PKLight reagent (23 μl) (Cambrex BioSciences, Rockland, Me.) was mixed with […] of the above kinase reaction and ATP utilization relative to no substrate and no ATP controls was determined by measuring luminescence with a SpectraMax Gemini EM plate reader (Molecular Devices, Sunnyvale, Calif.). Peptide substrates for Src and Akt have been described. For examples, see Lou et al. Letters in Peptide Science, 2, 289-296 (1995); Lou et al. Bioorganic & Medicinal Chemistry, 4, 677-682 (1996); Alessi et al. FEBS Letters, 399, 333-338 (1996). Substrate phosphorylation potential was determined from the linear portion of the substrate concentration dose response as a percentage of the activity observed with the parent peptide used for drug conjugation.

tubulin = assay: Fluorescence-based tubulin polymerization assay (MPA; enhancement for paclitaxel, inhibition for vinblastine); assay type: biochemical
From the text: Drug-linker constructs may further be screened using functional assays predictive of biological activity. […] Tubulin assembly or inhibition thereof may be monitored by fluorescence using the CytoDYNAMIX Screen™ 10 kit available from Cytoskeleton (1830 S. Acoma St., Denver, Colo.). […] Emission is monitored at 405 nm with excitation at 360 nm. […] Tubulin assembly or inhibition may also be monitored by light scattering which is approximated by the apparent absorption at 350 nm. For paclitaxel drug conjugates BSA is employed to prevent aggregation and glycerol, which is a tubulin polymerization enhancer, is omitted from the kit to increase the signal to noise ratio.
The assay kit (#BK011) was purchased from Cytoskeleton (Denver, Colo.). The assays were carried out according to the manufacturer's instructions, except that 1 mg/ml BSA (Sigma #A3059) was included in all assays. […] Parent drugs and conjugates were tested at 0.75, 1.5, 3 and 10 micromolar final concentration and results represent a comparison of conjugate and parent drug curves obtained from the linear range of the dose responses.
(±SD) represent the average of all tests carried out for all lots of a given compound.

[1] = tested on: Normal human foreskin fibroblasts (HFF); details: read-out: HFF (EC50 Ave) ML; HFF, ML (monolayer)
HUVEC = assay: Cytotoxicity assay (monolayer), HUVEC; assay type: cell-based; details: ML (monolayer), read-out: HUVEC (EC50 Ave) ML
[2] = tested on: HT-29 colorectal carcinoma; assay: Cytotoxicity assay (monolayer), HT-29; assay type: cell-based; details: HT29, ML (monolayer); read-out: HT29 (EC50 Ave) ML;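 further: monolayer cultures tested in triplicate, compound exposure for three days against DMSO vehicle controls, EC50 fitted from dose-response curves and averaged across all tests and lots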
MCF-7 breast carcinoma = assay: Cytotoxicity assay (monolayer), MCF-7; assay type: cell-based; details: MCF7, ML (monolayer); read-out: MCF7 (EC50 Ave) ML;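 further: cells treated 72 h with 6-8 compound doses versus DMSO vehicle controls, EC50 fitted by 4-parameter dose-response curves, averaged across all tests and lots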

Substance	Average src kinase activity (Human Src)	Ave. MPA Act. (tubulin)	EC50 [1] [nM]	EC50 (HUVEC) [nM]	EC50 [2] [nM]	EC50 (MCF-7 breast carcinoma) [nM]	Src (Qual. Act.) (Human Src)
Ac-E(Bzl)YIYGSFK(CBz)-PEG(13)-10Ca-PXL (Ac-E(OBn)YIYGSFK(Cbz)-{PEG(13)-10Ca-PXL})	Zero	A (A<50)	–	–	–	–	–
Ac-YIYGSFS-PEG(11)-3Am-VBL (N-acetyl; PEG(11) linker; vinblastine conjugate)	C (C>40)	B (B=50-80)	> 100	> 100	> 100	> 100	–
Ac-YIFGSFK-PEG(11)-3Am-VBL (N-acetyl; PEG(11) linker; vinblastine conjugate)	C (C>40)	B (B=50-80)	> 100	> 100	> 100	> 100	–
CBz-E(Bzl)YIFGSFK(BOC)-PEG(11)-3Am-VBL	A (A<20)	A (A<50)	> 100	> 100	> 100	< 20	–
CBz-YIYGSFK(BOC)-PEG(11)-3Am-VBL (Cbz-YIYGSFK(Boc)-{PEG(11)-3Am-VBL}; reading uncertain; also: printed as CBz-YIYGSFK(BOC)-PEG(11)-3Am-VBL)	A (A<20)	C (C>80)	–	> 100	> 100	> 100	–
CH3O(CH2CH2O)3CH2CH2(C═O)YIYGSFS-PEG(11)-3Am-VBL (N-methoxy-PEG acyl; PEG(11); vinblastine conjugate)	C (C>40)	C (C>80)	> 100	> 100	> 100	> 100	–
H-YIYGSFK-PEG(29)-3Am-VBL x 2TFA (H-YIYGSFK-{PEG(29)-3Am-VBL}; reading uncertain; also: 2TFA salt)	A (A<20)	A (A<50)	20 to 100	> 100	20 to 100	< 20	–
CBz-YIYGSFK(CBz)-PEG(11)-3Am-VBL (Cbz-YIYGSFK(Cbz)-{PEG(11)-3Am-VBL}; reading uncertain; also: printed as CBz-YIYGSFK(CBz)-PEG(11)-3Am-VBL)	A (A<20)	B (B=50-80)	20 to 100	20 to 100	> 100	20 to 100	–
Pv-RLVAYEGYV-PEG(11)-3Am-VBL (Piv-RLVAYEGYV-{PEG(11)-3Am‑VBL})	–	B (B=50-80)	> 100	> 100	> 100	> 100	–
H-GIYWHHY-PEG(11)-3Am-VBL (H-GIYWHHY-{PEG(11)-3Am-VBL}; reading uncertain)	B (B=20-40)	B (B=50-80)	> 100	> 100	> 100	> 100	–
H-YIYGSFK-3′Alk-MAL(9)-DOX (H-YIYGSFK-{3′Alk-MAL(9)-DOX}; reading uncertain)	–	–	> 100	–	–	> 100	C (C>40)
CH3O(CH2CH2O)3CH2CH2(C═)YIYGSFH-PEG(11)-3Am-VBL (N-methoxy-PEG acyl; PEG(11); vinblastine conjugate)	C (C>40)	B (B=50-80)	> 100	> 100	> 100	> 100	–
H-YIYGSFK-ALK(6)-10Es-PXL (H-YIYGSFK-{ALK(6)-10Es-PXL}; reading uncertain)	C (C>40)	B (B=50-80)	> 100	–	> 100	> 100	–
Pv-RLVAYEGYV-PEG(13)-10Ca-PXL (Piv-RLVAYEGYV-{PEG(13)-10Ca‑PXL})	–	A (A<50)	> 100	> 100	> 100	> 100	–
BOC-YI(phospho)YGSFK(BOC)-PEG(11)-3Am-VBL (Boc-YIYGSFK(Boc)-{PEG(11)-3Am-VBL}; reading uncertain; also: phospho at I2 as written: I(phospho), printed as BOC-YI(phospho)YGSFK(BOC)-PEG(11)-3Am-VBL)	C (C>40)	C (C>80)	20 to 100	> 100	–	> 100	–
CBz-YIYGSFK-3′Alk-MAL(9)-DOX (Cbz-YIYGSFK-{3′Alk-MAL(9)-DOX}; reading uncertain; also: printed as CBz-YIYGSFK-3′Alk-MAL(9)-DOX)	–	–	–	> 100	–	> 100	C (C>40)
Ac-YIYGSFK-3′Alk-MAL(9)-DOX (Ac-YIYGSFK-{3′Alk-MAL(9)-DOX}; reading uncertain; also: printed as Ac-YIYGSFK-3′Alk-MAL(9)-DOX)	–	–	–	–	–	> 100	C (C>40)
BOC-GIYWHHY-PEG(29)-3Am-VBL (N-BOC; PEG(29) linker; vinblastine conjugate)	A (A<20)	B (B=50-80)	> 100	> 100	–	> 100	–
Ac-YIYGSFK-PEG(13)-10Ca-PXL (N-acetyl; PEG(13) linker; paclitaxel conjugate)	C (C>40)	B (B=50-80)	–	> 100	> 100	> 100	–
Ac-EYIYGSFK-3′Alk-MAL(9)-DOX (Ac-EYIYGSFK-{3′Alk‑MAL(9)-DOX}; reading uncertain; also: printed as Ac-EYIYGSFK-3′Alk-MAL(9)-DOX)	–	–	> 100	> 100	–	> 100	C (C>40)
H-GIYWHHY-PEG(29)-3Am-VBL (H-GIYWHHY-{PEG(29)-3Am-VBL}; reading uncertain)	C (C>40)	C (C>80)	> 100	> 100	–	> 100	–
CBz-GIYWHHY-PEG(11)-3Am-VBL (N-CBz; PEG(11) linker; vinblastine conjugate)	A (A<20)	B (B=50-80)	–	–	> 100	> 100	–
CBz-YIYGSFK(CBz)-ALK(6)-10Es-PXL (Cbz-YIYGSFK(Cbz)-{ALK(6)-10Es-PXL}; reading uncertain; also: printed as CBz-YIYGSFK(CBz)-ALK(6)-10Es-PXL)	Zero	–	–	–	> 100	20 to 100	–
BOC-GIYWHHY-PEG(11)-3Am-VBL (N-BOC; PEG(11) linker; vinblastine conjugate)	A (A<20)	B (B=50-80)	–	–	> 100	> 100	–
Ac-EYIFGSFK-PEG(13)-10Ca-PXL (N-acetyl, PEG13, paclitaxel conjugate)	Zero	B (B=50-80)	–	> 100	> 100	> 100	–
Ac-EYIYGSFK(CBz)-PEG(13)-10Ca-PXL (Ac-EYIYGSFK(Cbz)-{PEG(13)-10Ca-PXL})	B (B=20-40)	A (A<50)	–	> 100	> 100	> 100	–
Pv-GRSRTSSFAEG-PEG(13)-10Ca-PXl (Piv-GRSRTSSFAEG-{PEG(13)-10Ca‑PXL}; also: 2 TFA salt)	–	C (C>80)	–	–	–	–	–
